Structures can show the parent of a compound that is named as a salt.
Assays:
RSK4 [1] = target: T1, RSK4 (Homo sapiens, UniProt Q9UK32); assay: biochemical; conditions: for activity in RSK4 HTRF-activation assay (inhibitor or inactive): floxacin family members
ERK = ERK (Homo sapiens, UniProt P28482); assay: ERK activity; type: biochemical
A549 cells [2] = assay: Random cell migration / 3D collagen-I invasion of A549 cells; type: cell-based; conditions: for cell migration/invasiveness: inhibitors 10 μM
RSK4 [3] = target: T1, RSK4; type: biochemical
cIAP1 and cIAP2 = assay: Cellular cIAP1 and cIAP2 expression after levofloxacin; type: cell-based; conditions: concentrations achievable from the clinical trial dose
[4] = tested on: patients undergoing chemotherapy; assay: Retrospective overall survival analysis of the SIGNIFICANT trial; type: in vivo, human
[5] = target: RSK4 N-terminal kinase domain (RSK4-NTKD) (Homo sapiens, UniProt Q9UK32); assay: Differential scanning fluorimetry; type: binding; conditions: inactive/dephosphorylated (APO) vs fully-active (ATP)
A549 cells [6] = assay: Western blot of BCL2, cIAP1 and cIAP2 expression in A549 cells; type: cell-based; conditions: 24 h
A549 cells [7] = assay: Caspase activation in A549 cells; type: cell-based; conditions: cisplatin 12.5 μM 24 h
bladder cancer explants = assay: Patient-derived bladder cancer explants; conditions: synergistic in two, additive in one
A549-Luc xenograft = assay: A549-Luc subcutaneous xenograft in nude mice; type: in vivo; conditions: 30 mg/kg daily oral gavage, 14 days
panel of 140 kinases = assay: In-vitro activity screen against a panel of 140 kinases; type: biochemical; conditions: 10 μM
RSK1 = RSK1 (Homo sapiens, UniProt Q15418); assay: RSK1 activation in cells; type: cell-based; conditions: preliminary data
A549 cells [8] = assay: Cisplatin/taxol sensitisation of A549 cells; type: cell-based

T1 sequence (Q9UK32 whole entry): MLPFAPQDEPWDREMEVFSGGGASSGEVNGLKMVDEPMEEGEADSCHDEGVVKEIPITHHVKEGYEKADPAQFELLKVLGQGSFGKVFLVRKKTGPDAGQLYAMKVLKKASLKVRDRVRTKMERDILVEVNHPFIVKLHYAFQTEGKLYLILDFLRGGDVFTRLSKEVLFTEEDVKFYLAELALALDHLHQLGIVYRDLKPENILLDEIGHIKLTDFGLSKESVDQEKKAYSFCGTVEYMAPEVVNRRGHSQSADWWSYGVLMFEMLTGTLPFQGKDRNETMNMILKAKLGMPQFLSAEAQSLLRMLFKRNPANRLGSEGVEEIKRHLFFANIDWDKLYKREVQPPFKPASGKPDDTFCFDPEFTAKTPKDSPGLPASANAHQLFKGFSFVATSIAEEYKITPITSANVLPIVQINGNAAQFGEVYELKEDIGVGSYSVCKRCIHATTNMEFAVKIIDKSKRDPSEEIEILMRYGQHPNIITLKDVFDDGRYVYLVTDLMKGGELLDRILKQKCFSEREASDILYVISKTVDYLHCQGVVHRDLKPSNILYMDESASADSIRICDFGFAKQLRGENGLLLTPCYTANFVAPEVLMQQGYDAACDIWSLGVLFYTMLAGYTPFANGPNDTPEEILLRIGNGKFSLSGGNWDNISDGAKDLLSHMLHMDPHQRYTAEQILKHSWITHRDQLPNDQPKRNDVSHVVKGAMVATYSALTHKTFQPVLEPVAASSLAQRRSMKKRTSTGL
Sequence of RSK4 N-terminal kinase domain (RSK4-NTKD) (Q9UK32 48-349): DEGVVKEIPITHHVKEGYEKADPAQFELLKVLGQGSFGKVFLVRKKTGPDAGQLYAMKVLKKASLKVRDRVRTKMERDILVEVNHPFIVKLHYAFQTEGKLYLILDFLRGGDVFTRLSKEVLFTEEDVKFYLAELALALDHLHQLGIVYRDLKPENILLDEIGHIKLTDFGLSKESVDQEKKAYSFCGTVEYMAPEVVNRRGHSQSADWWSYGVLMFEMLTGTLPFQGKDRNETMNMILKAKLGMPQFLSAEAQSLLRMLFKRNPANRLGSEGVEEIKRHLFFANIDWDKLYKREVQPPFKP
Sequence of RSK1 (Q15418 whole entry): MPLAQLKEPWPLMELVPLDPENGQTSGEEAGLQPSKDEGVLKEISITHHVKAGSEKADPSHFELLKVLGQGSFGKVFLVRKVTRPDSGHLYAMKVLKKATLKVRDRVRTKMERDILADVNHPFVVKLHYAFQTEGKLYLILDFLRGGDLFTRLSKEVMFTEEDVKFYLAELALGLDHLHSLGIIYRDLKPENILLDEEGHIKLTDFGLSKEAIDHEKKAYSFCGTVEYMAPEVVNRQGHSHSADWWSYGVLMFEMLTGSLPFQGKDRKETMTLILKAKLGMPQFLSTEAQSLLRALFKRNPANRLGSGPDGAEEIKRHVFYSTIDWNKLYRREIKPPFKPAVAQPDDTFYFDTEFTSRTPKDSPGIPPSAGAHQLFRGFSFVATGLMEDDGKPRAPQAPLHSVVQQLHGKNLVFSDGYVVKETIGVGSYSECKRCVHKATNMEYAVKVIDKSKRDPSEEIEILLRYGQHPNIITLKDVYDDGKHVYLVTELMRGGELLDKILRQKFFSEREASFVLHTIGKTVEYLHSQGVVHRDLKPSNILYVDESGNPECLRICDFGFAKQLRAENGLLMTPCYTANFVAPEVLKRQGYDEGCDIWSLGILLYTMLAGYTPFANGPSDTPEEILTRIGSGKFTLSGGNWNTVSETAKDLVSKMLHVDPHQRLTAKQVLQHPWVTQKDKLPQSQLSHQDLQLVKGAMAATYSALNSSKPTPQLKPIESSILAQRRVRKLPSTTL
Sequence of ERK (P28482 whole entry): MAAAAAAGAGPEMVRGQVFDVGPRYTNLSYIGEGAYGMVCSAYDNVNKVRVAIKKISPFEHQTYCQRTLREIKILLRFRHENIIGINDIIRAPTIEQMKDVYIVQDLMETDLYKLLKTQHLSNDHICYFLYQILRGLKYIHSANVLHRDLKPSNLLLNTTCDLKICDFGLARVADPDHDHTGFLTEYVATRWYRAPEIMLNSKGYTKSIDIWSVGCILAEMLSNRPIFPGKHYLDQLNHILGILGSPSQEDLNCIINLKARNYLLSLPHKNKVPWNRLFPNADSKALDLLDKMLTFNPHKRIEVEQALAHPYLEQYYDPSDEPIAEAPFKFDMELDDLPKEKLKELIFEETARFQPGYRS

COc1c(N2C[C@@H]3CCCN[C@@H]3C2)c(F)cc2c(=O)c(C(=O)O)cn(C3CC3)c12 [moxifloxacin]
IC50 (RSK4 [1]): 6.2 µM
mode of inhibition of RSK4 activation (RSK4 [1]): non-ATP competitive reversible inhibitor of RSK4 activation
preference RSK4 activation vs fully-active RSK4 (RSK4 [1]): preference for preventing RSK4 activation rather than inhibiting fully-active RSK4
selectivity RSK4 vs RSK1 (RSK4 [1]): favoured RSK4 over RSK1
inhibition at 30 µM (RSK4 [1]; read-out: inhibition of RSK4 activation): > 75%
effect on ERK activity (ERK): did not interfere with ERK activity
cell migration/invasiveness (A549 cells [2]): shared this ability
α (non-competitive binding to Enzyme and Enzyme-Substrate state) (RSK4 [3]): 1
effect on ATP Km and Vmax of RSK4 (RSK4 [3]; sub-maximal inhibition): maintained Km and displayed reduced Vmax

CCn1cc(C(=O)O)c(=O)c2cnc(N3CCCC3)nc21 [piromidic acid]
activity in RSK4 HTRF-activation assay (inhibitor or inactive) (RSK4 [1]): inactive analogues

CC(=O)O[C@@H]1[C@@H](OC(C)=O)[C@@H](O)[C@H](Oc2c(-c3ccc(O)cc3)oc3cc(O)cc(O)c3c2=O)O[C@H]1C [SL-0101]
invasiveness of A549 cells with pan-RSK inhibitor (A549 cells [2]): promotes lung cancer invasiveness

CN1CCN(c2c(F)cc3c(=O)c(C(=O)O)cn4c3c2OCN4C)CC1 [marbofloxacin]
activity in RSK4 HTRF-activation assay (inhibitor or inactive) (RSK4 [1]): additional inhibitors

C[C@H]1COc2c(N3CCN(C)CC3)c(F)cc3c(=O)c(C(=O)O)cn1c23 [levofloxacin]
cellular cIAP1 and cIAP2 expression (cIAP1 and cIAP2): decreased cellular cIAP1 and cIAP2 expression
activity in RSK4 HTRF-activation assay (inhibitor or inactive) (RSK4 [1]): inhibited RSK4 activation
hazard ratio for overall survival vs placebo ([4]; adherent patients (n=937), 95% CI 0.69-0.999, p=0.048): 0.83
hazard ratio in lung and bladder cancer patients compared to the entire cohort ([4]; lung and bladder cancer patients): further improved
hazard ratio for overall survival vs placebo ([4]; non-adherent patients (n=543), 95% CI 0.89-1.40, p=0.36): 1.11
median overall survival ([4]; patients adhering to trial treatment (n=937)): 72 months

O=C(O)c1cn(C2CC2)c2cc(N3CCNCC3)c(F)cc2c1=O [ciprofloxacin]
binding to RSK4-NTKD [5]: failed to bind RSK4
cell migration/invasiveness (A549 cells [2]): did not impair cell invasiveness
expression of BCL2 and cIAP1/2 (A549 cells [6]): an effect not seen

NC1CCN(c2nc3c(cc2F)c(=O)c(C(=O)O)cn3-c2ccc(F)cc2F)C1 (centres unmarked) [tosufloxacin, tosufloxacin tosylate]
activity in RSK4 HTRF-activation assay (inhibitor or inactive) (RSK4 [1]): additional inhibitors
cell migration/invasiveness (A549 cells [2]): shared this ability

N[C@@H]1[C@H]2CN(c3nc4c(cc3F)c(=O)c(C(=O)O)cn4-c3ccc(F)cc3F)C[C@@H]12 [trovafloxacin]
caspase activation in response to cisplatin (A549 cells [7]): promotion of caspase activation
benefit of combination with cisplatin in explants (bladder cancer explants): beneficial in 3 out of 4 patient-derived bladder cancer explants
IC50 (RSK4 [1]): 10 µM
activity in RSK4 HTRF-activation assay (inhibitor or inactive) (RSK4 [1]): additional inhibitors
tumour growth vs vehicle-only (A549-Luc xenograft): significantly (p<0.05) decreased tumour growth
binding to RSK4-NTKD [5]: bound the inactive/dephosphorylated, but not the fully-active
cell migration/invasiveness (A549 cells [2]): reproduced the inhibition of cell migration/invasiveness
expression of BCL2 and cIAP1/2 (A549 cells [6]): decreased expression of BCL2 and cIAP1/2
inhibition of other kinases (panel of 140 kinases): No other kinase was substantially inhibited
activation of RSK1 in cells (RSK1): does not inhibit the activation of RSK1 in cells
sensitisation of A549 cells to cisplatin (A549 cells [8]; 7.5 μM, cisplatin 12.5 μM for 72 h): reducing the IC50 for cisplatin
concentration giving maximal potentiation of cisplatin or taxol effects (A549 cells [8]; A549 cells): ≈ 10 μM
nature of the relationship with cisplatin (A549 cells [8]; A549 cells): synergistic

CN1CCN(c2c(F)cc3c(=O)c(C(=O)O)cn4c3c2SCC4)CC1 [rufloxacin]
activity in RSK4 HTRF-activation assay (inhibitor or inactive) (RSK4 [1]): additional inhibitors

CC(C)CCN1c2nc(Nc3cc(F)c(O)c(F)c3)ncc2N(C)C(=O)C1C (centres unmarked) [BI-D1870]
caspase activation in response to cisplatin (A549 cells [7]): failed to promote cisplatin-induced caspase activation
expression of BCL2 and cIAP1/2 (A549 cells [6]): an effect not seen

CN1C[C@@H]2C[C@H]1CN2c1cc2c(cc1F)c(=O)c(C(=O)O)cn2C1CC1 [danofloxacin]
activity in RSK4 HTRF-activation assay (inhibitor or inactive) (RSK4 [1]): inactive analogues
cell migration/invasiveness (A549 cells [2]): did not impair cell invasiveness
